Test systems include SK-MEL-2 melanoma; HCT-15 colon; HOP-62 NSCLC; OVCAR-4 ovarian; RPMI-8226 leukemia; A498 renal; DU-145 prostate; SF-295 CNS; OVCAR-5 ovarian; T-47D breast.
What all share (assay): NCI anticancer screen, dose series, 48 h

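Growth conditions: 96-well plates. Treatment: test compound, 48 hours, 5 concentrations. Analysis: linear interpolation between bracketing concentrations; unreached endpoints set to highest concentration. Definition used: TGI = concentration required for complete inhibition of growth.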

As for `CSc1ncnc2c1cnn2Cc1cn(COCC(O)CO)nn1` (stereo not given), the TGI in the assay with SK-MEL-2 melanoma, in the assay with HCT-15 colon, in the assay on HOP-62 NSCLC, in the assay on OVCAR-4 ovarian, in the assay with RPMI-8226 leukemia and with A498 renal was more than 100 µM throughout. Also, the TGI in the assay with DU-145 prostate, with SF-295 CNS, in the assay on OVCAR-5 ovarian and in the assay with T-47D breast was more than 100 µM throughout.

With `Brc1ccc(/C(N=N/C(=N\Sc2ccccc2)c2ccc(Br)cc2)=N/Sc2ccccc2)cc1`, the TGI with SK-MEL-2 melanoma, in the assay with HCT-15 colon, in the assay with HOP-62 NSCLC, in the assay on OVCAR-4 ovarian, in the assay with RPMI-8226 leukemia and with A498 renal was more than 100 µM in each case. The TGI with DU-145 prostate, in the assay with SF-295 CNS, with OVCAR-5 ovarian and in the assay on T-47D breast was more than 100 µM throughout.

Regarding `COC(=O)[C@@H]1[C@H]2CC[C@]3(C)[C@@H](OC(C)=O)CC[C@H]3[C@@H]2CC[C@H]1C1(C)SCCS1`, the TGI in the assay on SK-MEL-2 melanoma was 40 µM; in the assay with HCT-15 colon it was more than 100 µM; in the assay on HOP-62 NSCLC, 53.6 µM; with OVCAR-4 ovarian it was 75.2 µM; in the assay on RPMI-8226 leukemia, 43.4 µM; in the assay with A498 renal it was more than 100 µM. For the same compound, the TGI is more than 100 µM with DU-145 prostate, 73.6 µM in the assay on SF-295 CNS, 50.8 µM in the assay with OVCAR-5 ovarian and 56.8 µM in the assay on T-47D breast.

The values are drawn from PubChem BioAssay (NCI).
